Data reported in the METLIN SMRT retention time set (Domingo-Almenara et al. 2019).

Assay: gradient 5% acetonitrile 3 min, to 50% in 2 min, to 85% in 15 min, held 3 min, 100 µL/min
Conditions: column: Zorbax Extend-C18 2.1 x 50 mm; eluents: water / acetonitrile, 0.1% formic acid
Summary of the method: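 Retention times of pure standards were taken from adduct peaks that were selected by computer and manually inspected. Over 3 months, mixtures of ~100 molecules were run by HPLC–quadrupole time-of-flight mass spectrometry in positive and negative ionization mode. The Zorbax Extend-C18 column (2.1 × 50 mm, 1.8 μm) ran at 100 μL/min in water and acetonitrile, each containing 0.1% formic acid, with 40 μL dead volume and 900 μL dwell volume.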

## Cc1cc(C(=O)NCCN2CCCCCC2)c2c(=O)n(C)c(=O)n(C)c2n1
  RP-LC retention time: 592 s

## O=C(c1ccc2c(c1)CCCN2S(=O)(=O)c1ccccc1)N1CCOCC1
  RP-LC retention time: 787 s

## CC(C)Cc1nc(C2CN(C(=O)CC3CCCC3)CC23CCCC3)no1 (stereo not given)
  RP-LC retention time: 1210 s

## CC(=O)c1cccc(Nc2c(C(=O)N3CCCC3)cnc3nc(C)ccc23)c1
  RP-LC retention time: 587 s

## CSc1cccc(NC(=O)c2cccn2Cc2noc(C)n2)c1
  RP-LC retention time: 899 s

## O=S(=O)(NCc1nc(-c2ccc(NS(=O)(=O)c3cccs3)cc2)no1)c1ccccc1
  RP-LC retention time: 883 s

## COc1ccc(C(=O)N2CCC(n3c(-c4ccoc4)nc4cccnc43)C2)cc1OC (stereo not given)
  RP-LC retention time: 670 s

## COc1ccc(CNC(=O)C2CCCN(c3nnc4ccc(Cl)cn34)C2)c(OC)c1 (stereo not given)
  RP-LC retention time: 753 s

## CS(=O)(=O)N1CCC(C(=O)Nc2ccc3c(c2)N(C(=O)C2CCCO2)CC3)CC1 (stereo not given)
  RP-LC retention time: 631 s

## CC(C)c1ccccc1NC(=O)C1CCN(S(C)(=O)=O)c2ccccc2O1 (stereo not given)
  RP-LC retention time: 945 s

## Cc1cc(C)cc(NC(=O)N2CC(c3nc(C)no3)C3(CCOCC3)C2)c1 (stereo not given)
  RP-LC retention time: 706 s

## Cc1ccccc1N1CCN(C(=O)Cn2c(=O)c3nnc(C)n3c3ncccc32)CC1
  RP-LC retention time: 793 s

## CCc1ccc(N2C(=O)CN(Cc3ccccc3Cl)[C@H]3CS(=O)(=O)C[C@H]32)cc1
  RP-LC retention time: 910 s

## Cc1ccc(-n2nnnc2CNC(=O)COc2ccc(Cl)cc2Cl)cc1C
  RP-LC retention time: 931 s

## O=C(c1ccc2ccnc(N3CCN(c4ccccc4)CC3)c2c1)N1CCN(C2CCCCC2)CC1
  RP-LC retention time: 625 s

## CCOc1ccc(C(=O)N2CCCC2c2nc(-c3ccc(OC)cc3)no2)cc1OCC (stereo not given)
  RP-LC retention time: 982 s

## CCC(C(=O)NCCN1CCOCC1)n1nc(C)c2nn(-c3ccccc3)c(C)c2c1=O (stereo not given)
  RP-LC retention time: 640 s

## COc1ccc(-c2noc(Cc3nnc(-c4cccc(Cl)c4)o3)n2)cc1F
  RP-LC retention time: 1060 s

## O=C1c2ccc(O)cc2O[C@H](c2cc(O)c(O)c(O)c2)[C@H]1O
  RP-LC retention time: 617 s

## O=C(c1ccc(OCC2CCCN2C(=O)c2ccccc2)cc1)N1CCCC1 (stereo not given)
  RP-LC retention time: 789 s

## CC(=O)Nc1ccc(C(=O)N2CC3CN(S(=O)(=O)c4cccc(F)c4)CC(C2)O3)cc1
  RP-LC retention time: 685 s

## CN(C)S(=O)(=O)c1ccc2c(c1)Cc1cc(S(=O)(=O)N(C)C)ccc1-2
  RP-LC retention time: 820 s

## COc1ccccc1CCC(=O)Nc1ccc2c(c1)Sc1ncccc1C(=O)N2C
  RP-LC retention time: 822 s

## O=C(NC1CCCC1)c1c[nH]c2ncccc12
  RP-LC retention time: 625 s

## O=C(Nc1c(-c2ccccc2)nc2ccccn12)c1ccc(Br)cc1
  RP-LC retention time: 684 s

## CN(CCc1noc(COc2ccccc2F)n1)C(=O)Nc1ccc(F)c(Cl)c1
  RP-LC retention time: 966 s

## CCN1C(=O)c2cc(S(=O)(=O)Nc3ccc(Cl)cc3)ccc2Oc2cccnc21
  RP-LC retention time: 1050 s

## Cc1ccccc1CNC(=O)C1(C)CCCN(C(=O)Nc2ccc(F)c(Cl)c2)C1 (stereo not given)
  RP-LC retention time: 1040 s

## CCCCN1C(=O)C(C)(C(=O)NCc2ccccc2C)Oc2cccnc21 (stereo not given)
  RP-LC retention time: 1050 s

## Cc1ccc2c(C(=O)O)cc(NC(=O)C(C)C)cc2n1
  RP-LC retention time: 563 s

## Cn1c(=O)c2cc(C(=O)Nc3ccc(F)cc3)cnc2n(-c2ccccc2)c1=O
  RP-LC retention time: 868 s

## COc1cc(-c2noc(-c3ncn4c3COC(c3ccc(F)cc3)C4)n2)cc(OC)c1OC (stereo not given)
  RP-LC retention time: 976 s

## CC1CCN(C(=O)C2CC(=O)N(CCc3c[nH]c4ccc(F)cc34)C2)CC1 (stereo not given)
  RP-LC retention time: 797 s

## Cc1ccc(-c2cc(C(F)(F)F)on2)cc1S(=O)(=O)N1CCC(C)CC1
  RP-LC retention time: 1280 s

## O=C1[C@H]2CN(Cc3ccc(F)c(Cl)c3)C[C@H]2C(=O)N1Cc1ccc2c(c1)OCO2
  RP-LC retention time: 853 s

## CC(C)NC(=O)c1cc(C(C)C)[nH]n1
  RP-LC retention time: 660 s

## COC(=O)c1c(NCCC(C)C)c2cccc(Cl)c2[nH]c1=O
  RP-LC retention time: 847 s

## COc1ccc(CN2CC[C@@H]3CN(S(C)(=O)=O)[C@@H]3C2)c(OC)c1
  RP-LC retention time: 580 s

## Cc1ccccc1NC(=O)Cc1cn2cc(Cl)ccc2n1
  RP-LC retention time: 620 s

## CCN1CCN(c2ccc(NC(=O)c3ccc(C(F)(F)F)cc3)cn2)C1=O
  RP-LC retention time: 823 s

## O=S(=O)(C1CC1)N1CCCCC1c1nncn1CC1CC1 (stereo not given)
  RP-LC retention time: 578 s

## CNCc1ccc(-c2ccc(Cl)cc2Cl)o1
  RP-LC retention time: 658 s

## CCNC(=O)[C@H]1O[C@@H](n2cnc3c(N)ncnc32)C(O)[C@H]1O (stereo not given in full)
  RP-LC retention time: 555 s

## CCOC(=O)c1c(C)[nH]c(CCC(=O)NC(C)CC)c1C (stereo not given)
  RP-LC retention time: 762 s

## Cc1ccc(Sc2nccnc2N2CCC(C(=O)NCc3ccc(F)cc3F)CC2)cc1
  RP-LC retention time: 1070 s

## CCc1cccc(C)c1Nc1c(-c2cccc(O)c2)nc2nc(C)cc(C)n12
  RP-LC retention time: 712 s

## COc1ccc(-c2noc(Cn3nc(-c4ccc(C)cc4)ccc3=O)n2)cc1OC
  RP-LC retention time: 962 s

## CCNC(=O)c1nc2ccccc2n(CC)c1=O
  RP-LC retention time: 659 s

## COc1ccc(-c2noc(CN3N=NC4C(=O)N(c5ccc6c(c5)CCC6)C(=O)C43)n2)cc1OC (stereo not given)
  RP-LC retention time: 949 s

## CCOc1ccc(-c2noc(Cn3nc(-c4cccc(OC)c4)ccc3=O)n2)cc1
  RP-LC retention time: 1070 s

## Fc1ccc(-c2noc(-c3ccc(N4CCOCC4)nc3)n2)cc1
  RP-LC retention time: 1080 s

## NC(=O)C1CCN(CC(=O)Nc2nc(-c3ccccc3)cs2)CC1
  RP-LC retention time: 588 s

## CCOC(=O)C1CCN(C(=O)c2nc(N(CC)CC)c3c(C)cc(C)nc3n2)CC1
  RP-LC retention time: 657 s

## CCCN(C(=O)Cc1ccc(OC)cc1)c1nc(-c2ccccc2)cs1
  RP-LC retention time: 1420 s

## COc1ccc(C(O)CN2CCN(c3cccc(C)c3)CC2)cc1OC (stereo not given)
  RP-LC retention time: 653 s

## O=C(COc1ccccc1F)N1CCC(Oc2nc3ccccc3s2)CC1
  RP-LC retention time: 986 s

## CC(n1cc(C[C@H](N)C(=O)O)c2ccccc21)n1cc(C[C@H](N)C(=O)O)c2ccccc21
  RP-LC retention time: 628 s

## O=C(Nc1ccc(-c2nnc3n2CCCC3)cc1)C1CC1
  RP-LC retention time: 609 s

## CC(C)C(NC(=O)c1ccco1)c1nc(-c2ccc3c(c2)ncn3C)no1 (stereo not given)
  RP-LC retention time: 650 s

## Cc1ccc(-c2csc(NC(=O)c3ccc(C)c(C)c3)n2)cc1
  RP-LC retention time: 1240 s

## CC(C)CC1c2nccn2CCCN1C(=O)c1cc(C2CC2)[nH]n1 (stereo not given)
  RP-LC retention time: 614 s

## COCCn1cc(CC(=O)N2CCN(c3ccccn3)CC2)c2cccnc21
  RP-LC retention time: 569 s

## O=C(NCCn1c(-c2ccccc2)nc2cccnc21)Nc1ccccc1
  RP-LC retention time: 674 s

## O=C(Cn1cnc2ccccc21)NCCNc1cc(-n2cccn2)ncn1
  RP-LC retention time: 550 s

## Cc1cccc2c1NC(=O)C2(O)CC(=O)c1ccccc1Cl (stereo not given)
  RP-LC retention time: 729 s

## Cc1sc(NC(=O)Cc2csc(-c3ccccc3)n2)nc1-c1cccc(Cl)c1
  RP-LC retention time: 1270 s

## Cc1ccc(C(=O)OCC(=O)c2ccc([N+](=O)[O-])cc2)o1
  RP-LC retention time: 688 s

## CCNC(=O)c1sc2nc(-c3cccc(C)c3)c(NCCOC)n2c1C
  RP-LC retention time: 737 s

## CCOc1ccc(Nc2c(-c3ccc(N(C)C)cc3)nc3cnccn23)cc1
  RP-LC retention time: 813 s

## CCC(CO)NCc1ccc(-c2ccccc2)o1 (stereo not given)
  RP-LC retention time: 624 s

## COc1ccc(C2Cn3nnc(-c4nc(-c5ccc(C(F)(F)F)cc5)no4)c3CO2)cc1 (stereo not given)
  RP-LC retention time: 1270 s

## Cc1csc(-c2ccc(CNC(=O)c3ccoc3)cc2)n1
  RP-LC retention time: 781 s

## O=C(CSc1ccc(-n2ccnc2)nn1)NC1CCCCC1
  RP-LC retention time: 564 s

## COc1ccc(-c2noc(C3CCCN3C(=O)c3ccc(Cl)cc3)n2)cc1OC (stereo not given)
  RP-LC retention time: 959 s

## COCCNC(=O)N1c2ccccc2NC2=C(C(=O)CC(C)(C)C2)C1c1ccccc1OC (stereo not given)
  RP-LC retention time: 725 s

## O=C(NCC1CN(CC2CC2)CC12CCCCC2)Nc1cc(F)cc(F)c1 (stereo not given)
  RP-LC retention time: 760 s

## CSc1cccc(NC(=O)C2CCN(C(=O)c3ncn4c3COC(c3ccc(F)cc3)C4)CC2)c1 (stereo not given)
  RP-LC retention time: 849 s

## CCN(CC)CCNC(=O)C1CCCN(c2nc3cccnc3s2)C1 (stereo not given)
  RP-LC retention time: 577 s

## O=C(Cn1nc2c3sc(N4CCCC4)nc3ncn2c1=O)Nc1ccc(F)cc1
  RP-LC retention time: 718 s

## Cc1[nH]c(C(=O)N2CCC(CC(=O)NC3CCCC3)CC2)c(C)c1C(=O)OC(C)C
  RP-LC retention time: 778 s

## Cc1cc2c(c(=O)n(-c3ccc(F)cc3)c(=O)n2CC(=O)Nc2cccc(C(F)(F)F)c2)n1C
  RP-LC retention time: 933 s

## COc1cc(=O)n2c(c1C(=O)Nc1ccc(Br)cc1)CCCC2
  RP-LC retention time: 760 s

## CC(C)CNC(=O)C1CCN(C(=O)Nc2ccc(NC(=O)Nc3ccccc3)cc2)CC1
  RP-LC retention time: 812 s

## CCOC(=O)c1c(C)[nH]c(C(=O)N2CCC(CC(=O)N3CCN(c4ccccn4)CC3)CC2)c1C
  RP-LC retention time: 619 s

## Cc1nc2cc(N3CCCC(C(=O)Nc4ccc(N5CCOCC5)cc4)C3)cnc2nc1C (stereo not given)
  RP-LC retention time: 658 s

## COc1ccccc1/C=C/c1nn2c(-c3cccnc3)nnc2s1
  RP-LC retention time: 872 s

## CCn1cc(-c2ccc(C)cc2)cc1C(=O)NCc1cccnc1
  RP-LC retention time: 713 s

## CC1CCc2c(sc(NC(=O)Cc3ccc4c(c3)OCO4)c2C#N)C1 (stereo not given)
  RP-LC retention time: 1070 s

## CC(C)(C)C(=O)N1CCN(CC(F)(F)F)CC1
  RP-LC retention time: 746 s

## CSc1ccc(-c2noc(Cn3nc(-c4ccccc4)ccc3=O)n2)cc1
  RP-LC retention time: 1040 s
